Measured values as given in patent US20250134835A1, “COMPOSITIONS AND METHODS FOR TREATING PATIENTS WITH AMYOTROPHIC LATERAL SCLEROSIS (ALS)” (CuraSen Therapeutics, Inc., priority 2022, published 2025).
Entries after “also recorded” stand apart in the source; their conditions may differ.

Assays:
[1] = test system: healthy volunteers; test: Blood potassium, glucose and other peripheral effects after Compound 03-5 with or without nadolol; format: in vivo, human
Method: (§1) Healthy volunteers were enrolled into 2 cohorts in a study to undertake within-subject dose titration of Compound 03-5 and/or nadolol in order to explore doses/dose combinations that mitigate peripheral effects of Compound 03-5, e.g. on heart rate, while preserving possible central effects of Compound 03-5 on cerebral perfusion and pupillary light reflex.
(§2) Eight healthy subjects aged 18-50 years were enrolled into Cohort D1 and received escalating doses of Compound 03-5 (3-12 mg) administered once daily 2 hours follow pre-administration of nadolol (1-40 mg). On all dosing days, study drug(s) were administered orally after an overnight fast of at least 8 hours.
(§3) In Cohort D2, 8 healthy volunteers aged 55-75 years were admitted on Day −1 for a 5-day confinement period at the research facility. During this confinement, subjects received escalating doses of open label Compound 03-5 (1-10 mg) once-daily from Day 1 through Day 3 2 hours after pre-administration of open-label nadolol (3 mg) one each for the 3 dosing days according to the schematic in FIG. 17. Subjects remained in-residency until all study procedures are completed on Day 4.

[2] = test system: healthy volunteers; test: CANTAB cognition battery, Cohort D2; format: in vivo, human; conditions: Compound 03-5 1, 3 and 10 mg on Days 1, 2, 3 in the presence of 3 mg nadolol
Method: as §3
Compound 03-5 dose administration. Compound 03-5 was administered as escalating doses on Day 1 (1 mg), Day 2 (3 mg) and Day 3 (10 mg). CANTAB was conducted twice in all subjects on the day prior to start of dosing (Day −1) to familiarize subjects with the platform, and prior to dosing and approximately 3 hours after Compound 03-5 administration on Days 1, 2, and 3.

[3] = test system: healthy volunteers; test: Heart rate (triplicate ECG) after Compound 03-5 with or without nadolol; format: in vivo, human
Method: as §1, §2, §3

[4] = test system: healthy volunteers and patients; test: Cerebral blood flow after single dose of Compound 03-5; format: in vivo, human; conditions: single dose of Compound 03-5 in the absence or presence of 3 mg nadolol
From the text: Data are plotted as mean (±SEM) percent change in cerebral blood flow from baseline in brain regions of interest for movement (the precentral gyrus) and mood, anhedonia and cognition (hippocampus, thalamus, amygdala).

[5] = test system: patients with neurodegenerative disorders; format: in vivo, human; conditions: 80 μg clenbuterol and 1 mg nadolol once daily for 14 days vs placebo
[6] = test system: healthy subjects; test: Cerebral perfusion by ASL MRI after single dose of clenbuterol (Example 3); conditions: for cerebral blood flow measured by MRI-ASL: healthy volunteers, single dose (FIG. 2)
[7] = test system: healthy subjects; test: Adaptive tracking test; format: in vivo, human; conditions: single dose 160 μg clenbuterol
From the text: Adaptive tracking measures visuomotor coordination and vigilance. In this test, the subject uses a joystick to move a small dot so that it stays within a continuously moving circle on a computer screen (Boland 1984). During the test, the speed of the circle is adjusted in response to the subject's ability to keep the dot in the circle, ensuring that the test is adapted to the individual subject. […] The improvement shown by subjects is in the same range as that seen with subjects treated with the acetylcholinesterase inhibitor donepezil, which is in clinical use for the treatment of mild to moderate AD (Groeneveld 2016).

[8] = test system: healthy subjects; test: Visual verbal learning test (VVLT); format: in vivo, human; conditions: single dose; crossover study
Method: Subjects are presented 30 words on a screen, one at a time, for 1 second with a 1-second interval between words over a total of 1 minute. This is repeated in 3 trials. After each trial, subjects are asked to recall as many words as they can. After the third trial, there is a delay of 2.5 hours and subjects are then tested once for delayed recall. […] Since this was a crossover study, everyone who completed Part A was dosed with the 3 agents plus placebo.

[9] = test system: patients with neurodegenerative disorders; test: Facial Expression Recognition Task (FERT), crossover study; format: in vivo, human; conditions: clenbuterol co-administered with low-dose nadolol vs placebo
From the text: The Facial Expression Recognition Task (FERT) assesses the recognition of facial emotions. […] Different intensity levels of each emotion are presented, which increases the ambiguity of the facial expression and the sensitivity of the task.

[10] = test system: patients; test: Cerebral blood flow by brain imaging after single dose (Example 1); format: in vivo, human
[11] = test system: patients; test: Peripheral effects of clenbuterol with or without nadolol (heart rate, potassium, glucose)
[12] = monotherapy with Compound 03-5 (0.3-6 mg)
[13] = 80 µg clenbuterol on its own, single dose

In the case of `CC(C)(C)NC[C@H](O)c1cccc(C#N)n1` [Compound 03-5, (S)-6-(2-(tert-butylamino)-1-hydroxyethyl)picolinonitrile], the blood potassium concentrations [1, 12] is reported as “dose-dependent decreases in blood potassium concentrations”, the “cognition (CANTAB), change from within-day pre-dose assessment” value [2] is reported as “improvements in performance in the CANTAB cognition battery” and the “mean maximum increase in heart rate” value ([3]; Compound 03-5 with pre-administration of 1 mg nadolol) is reported as 7 beats per minute. The “heart rate change from baseline” value [3, 12] was “dose-dependent increases in heart rate” and the “cerebral blood flow from baseline (precentral gyrus, hippocampus, thalamus, amygdala)” value [4] was “robust, global increases in cerebral blood flow”.
With `CC(C)(C)NCC(O)c1cc(Cl)c(N)c(Cl)c1` (centres unmarked) [clenbuterol] the “number of words correctly recalled, immediate verbal recall” value [5] was “statistically significant increase in the number of words correctly recalled”, the cerebral perfusion ([6]; 160 μg clenbuterol, hippocampus, thalamus, amygdala, cortex, precentral gyrus) was “robust global increase in cerebral perfusion” and the “cerebral perfusion as measured by CBF” value ([6]; clenbuterol 40 μg) was “minimal increase”. The “cerebral perfusion as measured by CBF” value ([6]; clenbuterol doses below 30 μg) was “do not produce significant cerebral perfusion increases”, the “cerebral blood flow measured by MRI-ASL” value [6] was “increases in cerebral blood flow” and the “performance in adaptive tracking (percent time dot kept within moving circle)” value [7] was “improved performance in the adaptive tracking task; also recorded: improves cognition; also recorded: performance in adaptive tracking improves”. The “effect on VVLT (number of words recalled correctly)” value (“effect on VVLT” for short) [8] was “improvements in cognition; also recorded: positive effects”, the “accuracy of correctly identifying happy facial expressions (FERT)” value [9] was “statistically significant increase in the accuracy” and the “cerebral blood flow (CBF) relative to the baseline” value ([10]; single dose clenbuterol 160 μg) was “global increases in cerebral blood flow; also recorded: robust global increase in cerebral blood flow; also recorded: robust, global increase in cerebral blood flow”. The “cerebral blood flow (CBF) relative to the baseline” value ([10]; single dose clenbuterol 160 μg and nadolol 5 mg) was “global increases in cerebral blood flow; also recorded: robust global increase in cerebral blood flow”, the “cerebral blood flow from the baseline” value ([10]; single dose clenbuterol 30 to 160 μg and/or nadolol 5 mg, tracked 3 days) was “robust global increase in cerebral blood flow” and the “cerebral blood flow (CBF) relative to the baseline” value ([10]; single dose clenbuterol ranging from 20 to 160 μg, tracked 3 days) was “robust global increase in cerebral blood flow”. The “glucose in the blood, change from baseline” value [11, 13] was “increases in glucose in the blood”, the “potassium in the blood, change from baseline” value [11, 13] was “decreases in potassium in the blood” and the “heart rate change from baseline” value ([11]; 80 g clenbuterol on its own, single dose) was “increases in heart rate”. The “increases in heart rate” value ([11]; over the 4 hours after dosing clenbuterol+nadolol (1 mg)) was 4.0-6.8 bpm.
For `CC(C)(C)NCC(O)COc1cccc2c1CC(O)C(O)C2` (centres unmarked) [nadolol], the “effect of nadolol on Compound 03-5 induced decrease in blood potassium” value ([1]; 3 mg nadolol, cohort D2) was “inhibited”, the “effect of nadolol on effects of Compound 03-5 on blood glucose and potassium, tachycardia, tremor and palpitations” value ([1]; pre-administration of 1 mg nadolol) was “Concomitant attenuation” and the “effect of nadolol on peripheral effects of Compound 03-5 (heart rate, glucose, potassium)” value ([3]; 3 mg nadolol pre-administered, Cohort D2, Compound 03-5 1-10 mg) was “inhibited; also recorded: similarly blocked”. The “effect of nadolol on peripheral effects of Compound 03-5 (heart rate, glucose, potassium, tachycardia, tremor, palpitations)” value ([3]; Cohort D1, nadolol 1 mg up to 40 mg, Compound 03-5 3-12 mg) was “blocked” and the “effect of nadolol on heart rate increase and other peripheral effects of Compound 03-5” value ([3]; pre-administration of 1 mg nadolol, Compound 03-5 up to 6 mg orally) was “substantially attenuated”.
With `CC(C)NCC(O)COc1cccc2[nH]ccc12` (centres unmarked) [pindolol] the “cerebral blood flow measured by MRI-ASL” value [6] was “lack of increase in cerebral blood flow” and the “effect on VVLT” value [8] was “detrimental effect”.
In the case of `CC(C)(C)NCC(O)c1ccc(O)c(CO)c1` (centres unmarked) [salbutamol], the “effect on VVLT” value [8] is reported as “improvements in cognition; also recorded: positive effects”.
